Drawing on PubChem BioAssay (NCI), this text covers TGI and GI50 for 12 molecules.

Holding throughout (assay): NCI anticancer screen, dose series, 48 h
Test [1] concerns OVCAR-8 ovarian.
Test [2] relates to DMS 114 small cell lung.
In test [3] the test system is MCF7 breast.
Test [4] relates to LOX IMVI melanoma.
The test system of test [5] is SNB-75 CNS.
Test [6] deals with EKVX NSCLC.
Test [7] concerns RXF 393 renal.
Test [8] has as its system A549 NSCLC.
Test [9] concerns HCT-15 colon.
For test [10], the system named is U251 CNS.
Test [11] concerns SR leukemia.
For test [12], the system named is MDA-MB-231 breast.
In test [13] the test system is HS 578T breast.
Test [14] concerns MDA-N.

“And” between values parts separate entries of the source, which are not always exact repeats. Equal entries are not always repeated.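 96-well plates; 48 h exposure; 5 concentrations. Endpoints by linear interpolation between flanking doses. Not reached: highest tested concentration assigned. Abbreviation: GI50, concentration required for 50% inhibition of growth. TGI denotes the concentration required for complete inhibition of growth.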

Regarding `C=CCCCCCCCCC(=O)O`, the TGI in [1] turned out to be 283 µM; in [2], 389 µM; in test [3] it was 452 µM; in test [4], 259 µM; in [5], 468 µM; in [6] it was 255 µM. The TGI was 207 µM in test [7], 214 µM in test [8], 192 µM in test [9] and 242 µM in [10].
`Cc1ccc(-c2cc(-c3ccco3)c(C#N)c(=O)n2C2OC(CO)C(O)C(O)C2O)cc1` (stereo not given): the TGI in [1], in test [2], in [4], in test [6], in test [7] and in [11] was > 100 µM in each case. Also, the TGI in test [9] and in test [10] was > 100 µM throughout.
Turning to `CN(C(=O)c1ccc(OCCCC(=O)O)c(Cl)c1Cl)C1CCCC1`, the TGI in test [1], in [2], in test [3], in test [4], in [5] and in test [6] was > 100 µM in each case. The TGI in test [7], in test [8], in [9] and in test [10] was > 100 µM in each case.
On to `COc1cc(C=O)cc(O)c1O`, for which the TGI in [1], in [2], in [4], in test [5], in [6] and in test [11] was > 100 µM throughout. Also, the TGI in [8], in test [9] and in [10] was > 100 µM in each case.
Regarding `CCOC(=O)C(=O)NC12CC3CC(CC(C3)C1)C2`, the TGI in [1], in test [2], in test [4], in test [5], in test [6] and in [7] was > 100 µM throughout. The TGI in test [8], in [9] and in test [10] was > 100 µM in each case.
On to `COc1cccc2c1C(=O)c1c(O)c3c(c(O)c1C2=O)C[C@@](O)(C(=O)CO)CC3OC1CC(NCCCC(OC(C)=O)OC(C)=O)C(O)C(C)O1` (stereo not given in full), for which the GI50 in test [1] was < 0.0001 µM; in test [2] it was < 0.0001 µM; in test [5], < 0.0001 µM; in [6] it was 0.000305 µM; in test [7] it was 0.000198 µM. The TGI is 0.0119 µM in test [1]; 0.000341 µM in test [2]; 0.000743 µM in test [4]; 0.00403 µM and 0.000406 µM in test [5]; 0.00618 µM and 0.00119 µM in [6]; 0.00328 µM and 0.000813 µM in [7]. This molecule registered a TGI in [11] of 0.000288 µM.
Regarding `CC(=O)Nc1ccc(Sc2nnc(NC(C)=O)s2)cc1`, the TGI in test [1], in test [3], in [5], in test [6], in test [12] and in test [11] was > 100 µM each time. Besides, the TGI in [8], in test [13], in [14], in test [9] and in test [10] was > 100 µM in each case.
As for `O=[N+]([O-])C(=C/c1cccs1)/C(=C\c1cccs1)[N+](=O)[O-]`, the TGI in test [1] is 8.06 µM; in test [3] it was 7.72 µM; in test [4], 0.688 µM; in [5] it was > 95.2 µM; in test [6], > 32.4 µM; in test [7], 0.486 µM. For the same molecule, the TGI in [12] stood at 0.864 µM; in test [11], 0.987 µM; in [8] it was 9.59 µM; in [13], 50.7 µM; in test [14] it was 2.65 µM; in [9], 0.614 µM.
Take `Cn1c(=O)c(Cl)c(N=[N+]=[N-])c2ccccc21`: the TGI in [1], in [3], in test [4], in test [5], in test [6] and in test [7] was > 100 µM in each case. The TGI in test [12], in test [11], in test [8], in test [13], in test [14] and in [9] was > 100 µM each time. For the same molecule, the TGI in [10] was > 100 µM.
`COC1C(O)C(C)OC(OC2CCC3(C)C(CCC4C3C(O)CC3(C)C(C5=CC(=O)OC5)CCC43O)C2)C1O` (stereo not given): the TGI in test [1] was found to be 1.67 µM; in test [4], 0.775 µM; in [5], 2.78 µM; in [6], 0.536 µM; in test [7], 0.237 µM; in test [12], 24.4 µM. Besides, the TGI in test [11] was > 100 µM; in test [8] it was 0.192 µM; in test [13], > 100 µM; in test [14], 0.905 µM; in [9], 1.03 µM.
Regarding `O=C1c2ccccc2C(=O)N1CC(CN1C(=O)c2ccccc2C1=O)(C(=O)OCc1ccccc1)C(=O)OCc1ccccc1`, the TGI in test [1], in test [5], in test [7], in [12], in [11] and in test [13] was > 100 µM in each case. Also, the TGI in test [14], in test [9] and in test [10] was > 100 µM each time.
Take `CCOC(=O)C(OP(=O)(OCC)OCC)C(F)(F)F` (stereo not given): the TGI in test [3], in test [4], in [5], in test [6], in test [7] and in [12] was > 100 µM each time. Also, the TGI in [11], in test [13], in test [14], in [9] and in test [10] was > 100 µM throughout.
